# Test system: green peach aphid (Myzus persicae)
# Assay: Myzus test (MYZUPE spray treatment)
# Assay type: in vivo
# Conditions: after 5 days; application rate 500 g/ha; spray on Chinese cabbage discs; 100% = all aphids killed
# Experimental: Myzus Test (MYZUPE Spray Treatment) Solvent: 78 parts by weight of acetone and 1.5 parts by weight of dimethylformamide Emulsifier: 0.5 part by weight of alkylaryl polyglycol ether To prepare an active ingredient formulation, 1 part by weight of active ingredient is mixed with the specified amounts of solvent and emulsifier, and the concentrate is diluted to the desired concentration with emulsifier-containing water. Discs of Chinese cabbage (Brassica pekinensis) infested with all stages of the green peach aphid (Myzus persicae) are sprayed with an active ingredient formulation of the desired concentration. After the desired time, the efficacy in % is determined. 100% means that all aphids have been killed; 0% means that no aphids have been killed.
compound,measurement,value
CC(=O)OCC(=CC(=O)OC(C)C)N(C)Cc1ccc(Cl)nc1 [Compound 1],efficacy in %,80%

# Source: patent US8343893B2, “Substituted enaminocarbonyl compounds” (Bayer Cropscience AG, priority 2009, dated 2013)
